ChEMBL document CHEMBL1201862, “PubChem BioAssay data set” (2004)
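Results reflect a 48-hour exposure of cells in 96-well plates to compound at five concentrations. The concentration for 50% growth inhibition is given as GI50.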 Calls of active or inactive are those of the source. Cut-off read from the data, not from the text of the source: active = GI50 up to about 1.1 µM and inactive = higher.

Columns and labels:
Assay in all cases: NCI-60 cell line screen, 48 h
[1] = test system: A498
[2] = test system: EKVX
[3] = test system: HOP-62
[4] = test system: HT-29
[5] = test system: KM12
[6] = test system: MDA-MB-435
[7] = test system: Malme-3M
[8] = test system: NCI/ADR-RES
[9] = test system: OVCAR-4
[10] = test system: OVCAR-8
[11] = test system: PC-3
[12] = test system: RXF 393
[13] = test system: SF-295
[14] = test system: SK-MEL-2
[15] = test system: SK-OV-3
[16] = test system: SW-620
[17] = test system: UACC-257
[18] = test system: UACC-62
[19] = test system: UO-31
[20] = test system: HCC 2998

Measured: GI50

O=S(=O)(c1ccc(Br)cc1)N1CCN(S(=O)(=O)c2ccc(Br)cc2)CC1
inactive: [1] > 100 µM | [2] > 100 µM | [3] > 100 µM | [4] > 100 µM | [5] > 100 µM | [6] > 100 µM | [7] > 100 µM | [8] > 100 µM | [9] > 100 µM | [10] > 100 µM | [11] > 100 µM | [12] > 100 µM | [13] > 100 µM | [14] > 100 µM | [15] > 100 µM | [16] > 100 µM | [17] > 100 µM | [18] > 100 µM | [19] > 100 µM

CC[C@]12C=CCN3CCC4(c5cc(/N=N/c6ccccc6)c(OC)cc5N(C)[C@H]4[C@@](O)(C(=O)OC)[C@@H]1OC(C)=O)[C@@H]32 (some centres undefined)
inactive: [1] 16.6 µM | [2] 16.5 µM | [20] 17.9 µM | [3] 17.5 µM | [4] 16.3 µM | [5] 18.7 µM | [6] 18.8 µM | [7] 17.8 µM | [8] 20.4 µM | [9] 17.1 µM | [10] 19.5 µM | [11] 14.7 µM | [12] 15.2 µM | [13] 15.6 µM | [14] 17.1 µM | [16] 23.1 µM | [17] 16.6 µM | [18] 14.5 µM | [19] 14.6 µM

O=C1CC(CC(=O)c2ccc(Br)cc2)C(O)=C1C(=O)c1ccc(Br)cc1 (centres undefined)
inactive: [1] 77.1 µM | [2] > 100 µM | [20] > 100 µM | [3] 94.4 µM | [4] 49.2 µM | [5] 11.5 µM | [6] > 100 µM | [7] 69.7 µM | [8] > 100 µM | [10] 99.8 µM | [11] 98.2 µM | [12] > 100 µM | [13] 53.1 µM | [14] > 100 µM | [15] > 100 µM | [16] > 100 µM | [17] > 100 µM | [18] 42.6 µM | [19] 57.9 µM

CCOC(=O)C1C(c2ccco2)C2(C#N)C(=N)OC1(C)C2(C#N)C#N (centres undefined)
inactive: [1] > 100 µM | [2] > 100 µM | [20] > 100 µM | [4] > 100 µM | [5] > 100 µM | [6] > 100 µM | [7] > 100 µM | [8] > 100 µM | [10] > 100 µM | [11] > 100 µM | [12] > 100 µM | [13] > 100 µM | [14] > 100 µM | [15] > 100 µM | [16] > 100 µM | [17] > 100 µM | [18] > 100 µM | [19] > 100 µM

Cn1cccc1-c1ccc(-c2ccc(CO)[se]2)[se]1
inactive: [1] 1.77 µM | [2] 61.1 µM | [20] 2.02 µM | [3] 21.6 µM | [4] 12.6 µM | [5] 8.99 µM | [6] 4.91 µM | [7] 66.1 µM | [8] 22.8 µM | [9] 2.61 µM | [10] 27.7 µM | [11] 24.5 µM | [12] 5.66 µM | [13] 10.7 µM | [14] 28.8 µM | [15] 22.1 µM | [16] 2.15 µM | [18] 9.57 µM | [19] 35.7 µM
